Our source for the IC50 values is patent publication US10364245B2 (CHIESI FARMACEUTICI S.p.A., priority 2017, dated 2019).

Structures can show the parent of a compound that is named as a salt.

T1 sequence (Q16539 whole entry): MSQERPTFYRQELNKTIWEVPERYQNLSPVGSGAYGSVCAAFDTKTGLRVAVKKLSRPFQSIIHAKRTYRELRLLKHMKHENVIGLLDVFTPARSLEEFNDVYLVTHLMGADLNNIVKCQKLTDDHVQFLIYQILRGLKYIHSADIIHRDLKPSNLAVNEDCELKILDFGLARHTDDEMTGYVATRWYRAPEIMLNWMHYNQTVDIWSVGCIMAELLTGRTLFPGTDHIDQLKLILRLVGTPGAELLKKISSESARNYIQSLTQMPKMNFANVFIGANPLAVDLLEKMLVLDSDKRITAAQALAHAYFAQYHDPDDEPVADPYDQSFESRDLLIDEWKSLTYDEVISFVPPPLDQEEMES

The first experiment addresses T1, p38 alpha (Homo sapiens, UniProt Q16539).
T1 construct: purchased Invitrogen PV3304
The experiment can be described thus: P38 alpha enzyme inhibition assay (Alphascreen kinase activity assay). The format is biochemical. To be noted: 100 pM p38 alpha, 2 hours preincubation at 25° C., 250 μM ATP, ATF-2 fusion protein; read-out: p38α inhibition. The protocol: P38 Alpha Enzyme Inhibition Assay
The inhibitory activity of compounds was determined using an Alphascreen® (Perkin Elmer) based kinase activity assay. Kinase reactions consisted of 25 mM HEPES pH 7.5, 10 mM MgCl2, 100 μM Na3VO4, 2 mM DTT, 0.05 mg/ml Tween 20, 100 pM p38 alpha (Invitrogen, PV3304), 1% DMSO and 0.3 μg/ml ATF-2 fusion protein (New England Biolabs, 9224). Compounds were incubated under these conditions for 2 hours, at 25° C., prior to the initiation of the kinase activity by the addition of the 250 μM ATP. Reaction volumes were 20 μL. After 1 hr at 25° C. reactions were stopped by the adding 10 μL of 25 mM HEPES pH 7.5 containing 62.5 mM EDTA, 0.05% Triton X-100, 10% BSA and 0.83 ng/uL anti-phospho-ATF2 antibody (Abcam, ab28812). Detection was performed by measuring luminescence following the addition of Alphascreen Donor beads (Perkin Elmer 6765300) and Protein A Alphascreen Acceptor beads (Perkin Elmer 6760137), both at a final concentration of 20 ug/ml. IC50 values were determined from concentration-response curves.
For orientation: Bead proximity is the source of the signal in Alpha formats.
Consider `CN1CCC[C@H]1c1nnc2ccc(O[C@@H]3CC[C@H](NC(=O)Nc4cc(C(C)(C)C)ncn4)c4ccccc43)cn12` [Example 46, 1-(6-(tert-Butyl)pyrimidin-4-yl)-3-((1S,4R)-4-((3-((S)-1-methylpyrrolidin-2-yl)-[1,2,4]triazolo[4,3-a]pyridine-6-yl)oxy)-1,2,3,4-tetrahydronaphthalene-1-yl)urea Hydrochloride], for which the IC50 is less than 1 nM. `CCC(C)(C)c1nnc2ccc(O[C@@H]3CC[C@H](NC(=O)Nc4cc(C(C)(C)C)nc(C(=O)NCCN(C)CCOC)n4)c4ccccc43)cn12` [Example 4]: the IC50 is less than 1 nM. As for `CN(C)CCNC(=O)c1nc(NC(=O)N[C@H]2CC[C@@H](Oc3ccc4nnc(CC(C)(C)C)n4c3)c3ccccc32)cc(C(C)(C)C)n1` [Example 59, 4-(tert-Butyl)-N-(2-(dimethylamino)ethyl)-6-(3-((1S,4R)-4-((3-neopentyl-[1,2,4]triazolo[4,3-a]pyridin-6-yl)oxy)-1,2,3,4-tetrahydronaphthalen-1-yl)ureido)pyrimidine-2-carboxamide], the IC50 was in the range of 1 to 10 nM. As to `CC(C)(C)c1cc(NC(=O)N[C@H]2CC[C@@H](Oc3ccc4nnc(C(C)(C)C)n4c3)c3ccccc32)nc(C(=O)N2CC(F)(F)C2)n1` [Example 79, 1-(6-(tert-butyl)-2-(3,3-difluoroazetidine-1-carbonyl)pyrimidin-4-yl)-3-((1S,4R)-4-((3-(tert-butyl)-[1,2,4]triazolo[4,3-a]pyridin-6-yl)oxy)-1,2,3,4-tetrahydronaphthalen-1-yl)urea], the IC50 lay in the range of 1 to 10 nM. Still for that read-out and setting: the result for `CN(C)[C@H]1CCCC[C@@H]1NC(=O)c1nc(NC(=O)N[C@H]2CC[C@@H](Oc3ccc4nnc(C(C)(C)C)n4c3)c3ccccc32)cc(C(C)(C)C)n1` [Example 165, 4-(tert-butyl)-6-(3-((1S,4R)-4-((3-(tert-butyl)-[1,2,4]triazolo[4,3-a]pyridin-6-yl)oxy)-1,2,3,4-tetrahydronaphthalen-1-yl)ureido)-N-((1S,2S)-2-(dimethylamino)-cyclohexyl)pyrimidine-2-carboxamide] reads 1 to 10 nM.

Take `COC(C)(C)c1nnc2ccc(O[C@@H]3CC[C@H](NC(=O)Nc4cc(C(C)(C)C)nc(C(=O)NCC(C)(C)N(C)C)n4)c4ccccc43)cn12` [Example 141, 4-(tert-butyl)-N-(2-(dimethylamino)-2-mcthylpropyl)-6-(3-((1S,4R)-4-((3-(2-methoxypropan-2-yl)-[1,2,4]triazolo[4,3-a]pyridin-6-yl)oxy)-1,2,3,4-tetrahydronaphthalen-1-yl)ureido)pyrimidine-2-carboxamide]: the IC50 was 1 to 10 nM. On the same count and under the same terms, next, `CC(C)(C)c1cc(NC(=O)N[C@H]2CC[C@@H](Oc3ccc4nnc(C(C)(C)C)n4c3)c3ccccc32)nc(COCCN2CCOCC2)n1` [Example 63, 1-(6-(tert-Butyl)-2-((2-morpholinoethoxy)methyl)pyrimidin-4-yl)-3-((1S,4R)-4-((3-(tert-butyl)-[1,2,4]triazolo[4,3-a]pyridin-6-yl)oxy)-1,2,3,4-tetrahydronaphthalen-1-yl)urea]: 1 to 10 nM; `CN1CCN(Cc2nc(NC(=O)N[C@H]3CC[C@@H](Oc4ccc5nnc(C(C)(C)C)n5c4)c4ccccc43)cc(C(C)(C)C)n2)C(=O)C1` [Example 135, 1-(6-(tert-Butyl)-2-((4-methyl-2-oxopiperazin-1-yl)methyl)pyrimidin-4-yl)-3-((1S,4R)-4-((3-(tert-butyl)-[1,2,4]triazolo[4,3-a]pyridin-6-yl)oxy)-1,2,3,4-tetrahydronaphthalen-1-yl)urea formate salt]: 1 to 10 nM; `CSc1nc(NC(=O)N[C@H]2CC[C@@H](Oc3ccc4nnc([C@@H]5CCCN5C)n4c3)c3ccccc32)cc(C(C)(C)C)n1` [Example 48]: 1 to 10 nM. On to `CN(C)CCNC(=O)c1nc(NC(=O)N[C@H]2CC[C@@H](Oc3ccc4nnc(C(C)(C)N5CCN(C)CC5)n4c3)c3ccccc32)cc(C(C)(C)C)n1` [Example 22, 4-(tert-Butyl)-N-(2-(dimethylamino)ethyl)-6-(3-((1S,4R)-4-((3-(2-(4-methylpiperazin-1-yl)propan-2-yl)-[1,2,4]triazolo[4,3-a]pyridin-6-yl)oxy)-1,2,3,4-tetrahydronaphthalen-1-yl)ureido)pyrimidine-2-carboxamide], for which the IC50 lay in the range of 1 to 10 nM. As for `COCC(C)(C)c1nnc2ccc(O[C@@H]3CC[C@H](NC(=O)Nc4cc(C(C)(C)C)nc(C(=O)NCC5(N(C)C)CCCCC5)n4)c4ccccc43)cn12` [Example 153, 4-(tert-butyl)-N-((1-(dimethylamino)cyclohexyl)methyl)-6-(3-((1S,4R)-4-((3-(1-methoxy-2-methylpropan-2-yl)-[1,2,4]triazolo[4,3-a]pyridin-6-yl)oxy)-1,2,3,4-tetrahydronaphthalen-1-yl)ureido)pyrimidine-2-carboxamide], the IC50 was 1 to 10 nM. Same read-out and setting: next, `COCC(C)(C)c1nnc2ccc(O[C@@H]3CC[C@H](NC(=O)Nc4cc(C(C)(C)C)nc(C(=O)NCC5(N(C)C)CCOCC5)n4)c4ccccc43)cn12` [Example 150, 4-(tert-butyl)-N-((4-(dimethylamino)-tetrahydro-2H-pyran-4-yl)methyl)-6-(3-((1S,4R)-4-((3-(1-methoxy-2-methylpropan-2-yl)-[1,2,4]triazolo[4,3-a]pyridin-6-yl)oxy)-1,2,3,4-tetrahydronaphthalen-1-yl)ureido)pyrimidine-2-carboxamide]: 1 to 10 nM.

As to `CCN(C)C(C)(C)CNC(=O)c1nc(NC(=O)N[C@H]2CC[C@@H](Oc3ccc4nnc(C(C)(C)C)n4c3)c3ccccc32)cc(C(C)(C)C)n1` [Example 148, 4-(tert-butyl)-6-(3-((1S,4R)-4-((3-(tert-butyl)-[1,2,4]triazolo[4,3-a]pyridin-6-yl)oxy)-1,2,3,4-tetrahydronaphthalen-1-yl)ureido)-N-(2-(ethyl(methyl)amino)-2-methylpropyl)pyrimidine-2-carboxamide], the IC50 fell in the range of 1 to 10 nM. As for `COCCN(C)CCNC(=O)c1nc(NC(=O)N[C@H]2CC[C@@H](Oc3ccc4nnc([C@H](C)OC)n4c3)c3ccccc32)cc(C(C)(C)C)n1` [Example 106, 4-(tert-butyl)-N-(2-((2-methoxyethyl)(methyl)amino)ethyl)-6-(3-((1S,4R)-4-((3-((S)-1-methoxyethyl)-[1,2,4]triazolo[4,3-a]pyridin-6-yl)oxy)-1,2,3,4-tetrahydronaphthalen-1-yl)ureido)pyrimidine-2-carboxamide], the IC50 is 1 to 10 nM.

`CO[C@@H](C)c1nnc2ccc(O[C@@H]3CC[C@H](NC(=O)Nc4cc(C(C)(C)C)nc(C(=O)NCCN5CCOCC5)n4)c4ccccc43)cn12` [Example 101, 4-(tert-butyl)-6-(3-((1S,4R)-4-((3-((S)-1-methoxyethyl)-[1,2,4]triazolo[4,3-a]pyridin-6-yl)oxy)-1,2,3,4-tetrahydronaphthalen-1-yl)ureido)-N-(2-morpholinoethyl)-pyrimidine-2-carboxamide]: the IC50 lay in the range of 1 to 10 nM.

As for `COC1CN(C(C)(C)CNC(=O)c2nc(NC(=O)N[C@H]3CC[C@@H](Oc4ccc5nnc(C(C)(C)C)n5c4)c4ccccc43)cc(C(C)(C)C)n2)C1` [Example 170, 4-(tert-butyl)-6-(3-((1S,4R)-4-((3-(tert-butyl)-[1,2,4]triazolo[4,3-a]pyridin-6-yl)oxy)-1,2,3,4-tetrahydronaphthalen-1-yl)ureido)-N-(2-(3-methoxyazetidin-1-yl)-2-methylpropyl)pyrimidine-2-carboxamide], the IC50 was in the range of 1 to 10 nM.

The test system of the next experiment is Peripheral Blood Mononuclear Cells (PBMCs), TNFα release. The experiment in a line: LPS-stimulated PBMC TNFα release assay. The format is cell-based. The conditions noted are these: human PBMC, LPS (10 ng/ml), 18 h, compound 1 h before LPS; read-out: LPS-stimulated PBMC TNFα release inhibition. On the procedure:
LPS-Stimulated PBMC TNFα Release Assay
Peripheral Blood Mononuclear Cells (PBMCs) were isolated from healthy human volunteer blood using a standard density gradient centrifugation technique. Citrated blood was placed onto Histopaque™ and centrifuged. The PBMCs were removed from the density gradient interface and washed in phosphate buffered saline (PBS). The PBMCs were suspended in RPMI 1640 medium (without serum), dispensed into a 96-well plate and incubated at 37° C. for 3 h in a humidified incubator. After incubation, the medium was replaced (with medium containing 1% foetal bovine serum) and the plate incubated at 37° C., for 1 h, in the presence of test compound or the appropriate vehicle. LPS (10 ng/ml), or an appropriate vehicle control, was then added to the cells and the plate returned to the incubator for 18 h. Cell-free supernatants were removed and assayed for TNFα levels using MSD plates on the Sector Imager 6000 (MesoScale).
A dose response curve to each test compound was performed and the effect of compound in each experiment was expressed as a percentage inhibition of the control TNFα release. Dose response curves were plotted and compound potency (IC50) was determined. Compounds were tested in at least three separate experiments.
For the compound `CN1CCC[C@H]1c1nnc2ccc(O[C@@H]3CC[C@H](NC(=O)Nc4cc(C(C)(C)C)ncn4)c4ccccc43)cn12` [Example 46, 1-(6-(tert-Butyl)pyrimidin-4-yl)-3-((1S,4R)-4-((3-((S)-1-methylpyrrolidin-2-yl)-[1,2,4]triazolo[4,3-a]pyridine-6-yl)oxy)-1,2,3,4-tetrahydronaphthalene-1-yl)urea Hydrochloride], the IC50 was 1 to 5 nM. On the same count and under the same terms, next, `CCC(C)(C)c1nnc2ccc(O[C@@H]3CC[C@H](NC(=O)Nc4cc(C(C)(C)C)nc(C(=O)NCCN(C)CCOC)n4)c4ccccc43)cn12` [Example 4]: 1 to 5 nM. On the same count and under the same terms, the result for `CN(C)CCNC(=O)c1nc(NC(=O)N[C@H]2CC[C@@H](Oc3ccc4nnc(CC(C)(C)C)n4c3)c3ccccc32)cc(C(C)(C)C)n1` [Example 59, 4-(tert-Butyl)-N-(2-(dimethylamino)ethyl)-6-(3-((1S,4R)-4-((3-neopentyl-[1,2,4]triazolo[4,3-a]pyridin-6-yl)oxy)-1,2,3,4-tetrahydronaphthalen-1-yl)ureido)pyrimidine-2-carboxamide] reads greater than 5 nM. As to `CN1CCN(c2nc(NC(=O)N[C@H]3CC[C@@H](Oc4ccc5nnc([C@]6(C)CCCN6C)n5c4)c4ccccc43)cc(C(C)(C)C)n2)CC1` [Example 31, 1-(6-(tert-Butyl)-2-(4-methylpiperazin-1-yl)pyrimidin-4-yl)-3-((1S,4R)-4-((3-((S)-1,2-dimethylpyrrolidin-2-yl)-[1,2,4]triazolo[4,3-a]pyridin-6-yl)oxy)-1,2,3,4-tetrahydronaphthalen-1-yl)urea], the IC50 was greater than 5 nM.
